Measurements taken from PubChem BioAssay (NCI).
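The compound was tested at five concentrations on cells cultured in 96-well plates, with a 48-hour exposure period. TGI: total growth inhibition.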

How the values were obtained:
Assay in all cases: inhibition of tumour cell growth, NCI panel, 48 h
786-0 renal = system: 786-0 renal
A498 renal = system: A498 renal
A549 NSCLC = system: A549 NSCLC
ACHN renal = system: ACHN renal
BT-549 breast = system: BT-549 breast
CAKI-1 renal = system: CAKI-1 renal
CCRF-CEM leukemia = system: CCRF-CEM leukemia
COLO 205 colon = system: COLO 205 colon
DU-145 prostate = system: DU-145 prostate
EKVX NSCLC = system: EKVX NSCLC
HCC-2998 colon = system: HCC-2998 colon
HCT-116 colon = system: HCT-116 colon
HCT-15 colon = system: HCT-15 colon
HL-60(TB) leukemia = system: HL-60(TB) leukemia
HOP-62 NSCLC = system: HOP-62 NSCLC
HOP-92 NSCLC = system: HOP-92 NSCLC
HS 578T breast = system: HS 578T breast
HT29 colon = system: HT29 colon
IGROV1 ovarian = system: IGROV1 ovarian
K-562 leukemia = system: K-562 leukemia
KM12 colon = system: KM12 colon
LOX IMVI melanoma = system: LOX IMVI melanoma
M14 melanoma = system: M14 melanoma
MALME-3M melanoma = system: MALME-3M melanoma
MCF7 breast = system: MCF7 breast
MDA-MB-231 breast = system: MDA-MB-231 breast
MDA-MB-435 = system: MDA-MB-435
MDA-N = system: MDA-N
MOLT-4 leukemia = system: MOLT-4 leukemia
NCI-H226 lung = system: NCI-H226 lung
NCI-H23 lung = system: NCI-H23 lung
NCI-H460 lung = system: NCI-H460 lung
NCI-H522 lung = system: NCI-H522 lung
NCI/ADR-RES ovarian = system: NCI/ADR-RES ovarian
OVCAR-3 ovarian = system: OVCAR-3 ovarian
OVCAR-4 ovarian = system: OVCAR-4 ovarian
OVCAR-5 ovarian = system: OVCAR-5 ovarian
OVCAR-8 ovarian = system: OVCAR-8 ovarian
PC-3 prostate = system: PC-3 prostate
RPMI-8226 leukemia = system: RPMI-8226 leukemia
RXF 393 renal = system: RXF 393 renal
SF-268 CNS = system: SF-268 CNS
SF-295 CNS = system: SF-295 CNS
SF-539 CNS = system: SF-539 CNS
SK-MEL-2 melanoma = system: SK-MEL-2 melanoma
SK-MEL-28 melanoma = system: SK-MEL-28 melanoma
SK-MEL-5 melanoma = system: SK-MEL-5 melanoma
SK-OV-3 ovarian = system: SK-OV-3 ovarian
SN12C renal = system: SN12C renal
SNB-19 CNS = system: SNB-19 CNS
SNB-75 CNS = system: SNB-75 CNS
SW-620 colon = system: SW-620 colon
T-47D breast = system: T-47D breast
TK-10 renal = system: TK-10 renal
U251 CNS = system: U251 CNS
UACC-257 melanoma = system: UACC-257 melanoma
UACC-62 melanoma = system: UACC-62 melanoma
UO-31 renal = system: UO-31 renal

Measured: TGI

CN(C)c1ccc(/C=C(\NC(=O)c2ccccc2)C(=O)Nc2ccccc2C(=O)NCc2ccccc2)cc1
93.3 µM: NCI-H522 lung
> 100 µM: all other assays above
